Drawing on patent US8207178B2 (priority 2007, dated 2012), this text covers EC50 for 29 molecules.

Bounds are passed on as bounds.

The test system of one assay is HIV-1 K103N-L100I mutant. Kind of assay: microbe, parasite or virus in culture. Format: cell-based, human immunodeficiency virus type 1 (HIV-1). The conditions noted are these: Human immunodeficiency virus 1, HeLa, read-out: EC50 mutant K103N-L100I, mutant K103N-L100I.
The next assay has as its system wild type HIV-1. Briefly: microbe, parasite or virus in culture. Format: cell-based, human immunodeficiency virus type 1 (HIV-1). To be noted: Human immunodeficiency virus 1, Hela-JC53.

Take `Cc1cc(-c2ccc(C(N)=O)nc2)cc(C)c1Oc1nc(Nc2ccc(C#N)cc2)nc2ccn(C)c12` [Example 60, 5-(4-(2-(4-Cyanophenylamino)-5-methyl-5H-pyrrolo[3,2-d]pyrimidin-4-yloxy)-3,5-dimethyl-phenyl)picolinamide]: the EC50 (usually the concentration needed to bring the measured effect to its halfway point) in the assay on HIV-1 K103N-L100I mutant was more than 0.01 µM; with wild type HIV-1, 0.001 to 0.01 µM.
Consider `Cc1cc(-c2ccncc2)cc(C)c1Oc1nc(Nc2ccc(C#N)cc2)nc2c(Cl)cn(C)c12` [Example 18, 4-(7-Chloro-4-(2,6-dimethyl-4-(pyridin-4-yl)phenoxy)-5-methyl-5H-pyrrolo[3,2-d]pyrimidin-2-ylamino)benzonitrile], for which the 50% effective concentration (EC50) in the assay with HIV-1 K103N-L100I mutant and in the assay with wild type HIV-1 was 0.001 to 0.01 µM in each case.
On to `Cc1cc(-c2cnn(Cc3ccccc3)c2)cc(C)c1Oc1nc(Nc2ccc(C#N)cc2)nc2ccn(C)c12` [Example 76, 4-(4-(4-(1-benzyl-1H-pyrazol-4-yl)-2,6-dimethylphenoxy)-5-methyl-5H-pyrrolo[3,2-d]pyrimidin-2-ylamino)benzonitrile], for which the results for the EC50 in the assay on HIV-1 K103N-L100I mutant and with wild type HIV-1 were more than 0.01 µM and 0.001 to 0.01 µM, respectively.
As to `Cn1cnc2nc(Nc3ccc(C#N)cc3)nc(Oc3c(Cl)cc(-c4ccc(C(N)=O)cc4)cc3Cl)c21` [Example 112, 3′,5′-dichloro-4′-(2-(4-cyanophenylamino)-7-methyl-7H-purin-6-yloxy)biphenyl-4-carboxamide], the concentration giving a half-maximal response (EC50) in the assay on HIV-1 K103N-L100I mutant is 0.001 to 0.01 µM; in the assay with wild type HIV-1, less than 0.001 µM.
As for `Cc1cc(-c2ccc[nH]2)cc(C)c1Oc1nc(Nc2ccc(C#N)cc2)nc2ccn(C)c12` [Example 27, 4-(4-(2,6-Dimethyl-4-(1H pyrrol-2-yl)phenoxy)-5-methyl-5H-pyrrolo[3,2-d]pyrimidin-2-ylamino) benzonitrile], the half-maximal effective concentration (EC50) in the assay on HIV-1 K103N-L100I mutant is more than 0.01 µM; with wild type HIV-1, less than 0.001 µM.
As to `Cc1cc(-c2ccncc2)cc(C)c1Oc1nc(Nc2ccc(C#N)cc2)nc2c1ncn2C` [Example 108, 4-(6-(2,6-dimethyl-4-(pyridin-4-yl)phenoxy)-9-methyl-9H-purin-2-ylamino)benzonitrile], the half-maximal effective concentration (EC50) in the assay with HIV-1 K103N-L100I mutant and in the assay on wild type HIV-1 was 0.001 to 0.01 µM in each case.
Take `Cc1cc(-c2ccc(C(=O)NC3CC3)cc2)cc(C)c1Oc1nc(Nc2ccc(C#N)cc2)nc2ccn(C)c12` [Example 92, 4′-(2-(4-cyanophenylamino)-5-methyl-5H-pyrrolo[3,2-d]pyrimidin-4-yloxy)-N-cyclopropyl-3′,5′-dimethylbiphenyl-4-carboxamide]: the EC50 in the assay on HIV-1 K103N-L100I mutant and with wild type HIV-1 was more than 0.01 µM in each case.
As for `Cc1cc(-c2cccnc2Cl)cc(C)c1Oc1nc(Nc2ccc(C#N)cc2)nc2ccn(C)c12` [Example 80, 4-(4-(4-2-chloropyridin-3-yl)-2,6-dimethylphenoxy)-5-methyl-5H-pyrrolo[3,2-d] pyrimidin-2-ylamino benzonitrile], the EC50 in the assay on HIV-1 K103N-L100I mutant and in the assay with wild type HIV-1 was 0.001 to 0.01 µM each time.
On to `Cc1cc(-c2ccc(S(=O)(=O)NC3CC3)cc2)cc(C)c1Oc1nc(Nc2ccc(C#N)cc2)nc2ccn(C)c12` [Example 85, 4′-(2-(4-cyanophenylamino)-5-methyl-5H-pyrrolo[3,2-d]pyrimidin-4-yloxy)-N-cyclopropyl-3′,5′-dimethylbiphenyl-4-sulfonamide], for which the concentration for a half-maximal effect (EC50) is more than 0.01 µM with HIV-1 K103N-L100I mutant and 0.001 to 0.01 µM with wild type HIV-1.
Regarding `Cc1cc(-c2ccnc(N3CCOCC3)c2Cl)cc(C)c1Oc1nc(Nc2ccc(C#N)cc2)nc2ccn(C)c12` [Example 79, 4-(4-(4-(3-chloro-2-morpholinopyridin-4-yl)-2,6-dimethylphenoxy)-5-methyl-5H-pyrrolo[3,2-d]pyrimidin-2-ylamino)benzonitrile], the EC50 with HIV-1 K103N-L100I mutant and with wild type HIV-1 was 0.001 to 0.01 µM in each case.
For `Cc1cc(-c2ccc(C(=O)N3CCC3)cc2)cc(C)c1Oc1nc(Nc2ccc(C#N)cc2)nc2ccn(C)c12` [Example 90], the concentration giving a half-maximal response (EC50) is more than 0.01 µM in the assay on HIV-1 K103N-L100I mutant and 0.001 to 0.01 µM with wild type HIV-1.
For `Cc1cc(-c2ccc(C(N)=O)cn2)cc(C)c1Oc1nc(Nc2ccc(C#N)cc2)nc2c1ncn2C` [Example 124, 6-(4-(2-(4-cyanophenylamino)-9-methyl-9H-purin-6-yloxy)-3,5-dimethylphenyl)nicotinamide], the half-maximal effective concentration (EC50) in the assay on HIV-1 K103N-L100I mutant is more than 0.01 µM; in the assay on wild type HIV-1, 0.001 to 0.01 µM.
Consider `Cc1cc(-c2cccc(C(N)=O)c2)cc(C)c1Oc1nc(Nc2ccc(C#N)cc2)nc2ccn(C)c12` [Example 77, 4′-(2-(4-cyanophenylamino)-5-methyl-5H-pyrrolo[3,2-d]pyrimidin-4-yloxy)-3′,5′-dimethylbiphenyl-3-carboxamide], for which the concentration giving a half-maximal response (EC50) was more than 0.01 µM in the assay with HIV-1 K103N-L100I mutant and 0.001 to 0.01 µM in the assay with wild type HIV-1.
On the same counts, the results for `Cc1cc(-c2c(C)noc2C)cc(C)c1Oc1nc(Nc2ccc(C#N)cc2)nc2ccn(C)c12` [Example 35, 4-(4-(4-(3,5-Dimethylisoxazol-4-yl)-2,6-dimethylphenoxy)-5-methyl-5H-pyrrolo[3,2-d]pyrimidin-2-ylamino) benzonitrile] are 0.001 to 0.01 µM and 0.001 to 0.01 µM.
As for `Cc1cc(-c2cccc3cccnc23)cc(C)c1Oc1nc(Nc2ccc(C#N)cc2)nc2ccn(C)c12` [Example 43, 4-(4-(2,6-Dimethyl-4-(quinolin-8-yl)phenoxy)-5-methyl-5H-pyrrolo[3,2-d]pyrimidin-2-ylamino) benzonitrile], the figures for the EC50 with HIV-1 K103N-L100I mutant and in the assay with wild type HIV-1 were more than 0.01 µM and 0.001 to 0.01 µM, respectively.
Consider `Cc1cc(-c2ccc(C(=O)N3CCC(O)C3)cc2)cc(C)c1Oc1nc(Nc2ccc(C#N)cc2)nc2ccn(C)c12` (stereo not shown) [Example 94, 4-(4-(4′-(3-hydroxypyrrolidine-1-carbonyl)-3,5-dimethylbiphenyl-4-yloxy)-5-methyl-5H-pyrrolo[3,2-d]pyrimidin-2-ylamino) benzonitrile], for which the EC50 in the assay with HIV-1 K103N-L100I mutant and with wild type HIV-1 was 0.001 to 0.01 µM throughout.
For `Cc1cc(-c2ccc3c(c2)OCO3)cc(C)c1Oc1nc(Nc2ccc(C#N)cc2)nc2ccn(C)c12` [Example 69, 4-(4-(4-(benzo[d][1,3]dioxol-5-yl)-2,6-dimethylbiphenoxy)-5-methyl-5H-pyrrolo[3,2-d]pyrimidin-2-ylamino) benzonitrile], the values for the concentration giving a half-maximal response (EC50) in the assay on HIV-1 K103N-L100I mutant and in the assay with wild type HIV-1 were more than 0.01 µM and 0.001 to 0.01 µM, respectively.
As to `Cc1cc(-c2cncc3ccccc23)cc(C)c1Oc1nc(Nc2ccc(C#N)cc2)nc2ccn(C)c12` [Example 40, 4-(4-(4-(Isoquinolin-4-yl)-2,6-dimethylphenoxy)-5-methyl-5H-pyrrolo[3,2-d]pyrimidin-2-ylamino) benzonitrile], the concentration for a half-maximal effect (EC50) is more than 0.01 µM with HIV-1 K103N-L100I mutant and 0.001 to 0.01 µM in the assay on wild type HIV-1.
Take `Cc1cc(-c2c(C)nn(C)c2C)cc(C)c1Oc1nc(Nc2ccc(C#N)cc2)nc2ccn(C)c12` [Example 21]: the EC50 in the assay with HIV-1 K103N-L100I mutant is more than 0.01 µM; in the assay with wild type HIV-1, 0.001 to 0.01 µM.
In the case of `Cc1cc(C#N)cc(C)c1Nc1nc(Oc2ccc(-c3ccncc3)cc2)c2nc[nH]c2n1` [Example 106, 3,5-Dimethyl-4-(6-(4-(pyridin-4-yl)phenoxy)-9H-purin-2-ylamino)benzonitrile], the concentration for a half-maximal effect (EC50) in the assay on HIV-1 K103N-L100I mutant and in the assay with wild type HIV-1 was more than 0.01 µM throughout.
As for `Cc1cc(-c2ccc(C(=O)N3CCC(C#N)C3)cc2)cc(C)c1Oc1nc(Nc2ccc(C#N)cc2)nc2ccn(C)c12` (stereo not shown) [Example 91, 1-(4′-(2-(4-cyanophenylamino)-5-methyl-5H-pyrrolo[3,2-d]pyrimidin-4-yloxy)-3′,5′-dimethylbiphenylcarbonyl) pyrrolidine-3-carbonitrile], the EC50 in the assay with HIV-1 K103N-L100I mutant and with wild type HIV-1 was more than 0.01 µM each time.
`Cc1cc(-c2ccc(C(=O)N(C)C)cc2)cc(C)c1Oc1nc(Nc2ccc(C#N)cc2)nc2ccn(C)c12` [Example 89, 4′-(2-(4-cyanophenylamino)-5-methyl-5H-pyrrolo[3,2-d]pyrimidin-4-yloxy)-N,N,3′,5′-tetramethylbiphenyl-4-carboxamide]: the EC50 is more than 0.01 µM with HIV-1 K103N-L100I mutant and 0.001 to 0.01 µM in the assay with wild type HIV-1.
On to `Cc1cc(-c2ccccc2S(N)(=O)=O)cc(C)c1Oc1nc(Nc2ccc(C#N)cc2)nc2ccn(C)c12` [Example 73, 4′-(2-(4-cyanophenylamino)-5-methyl-5H-pyrrolo[3,2-d]pyrimidin-4-yloxy)-3′,5′-dimethylbiphenyl-2-sulfonamide], for which the concentration giving a half-maximal response (EC50) with HIV-1 K103N-L100I mutant and in the assay on wild type HIV-1 was more than 0.01 µM throughout.
With `Cc1cc(-c2ccnc3ccccc23)cc(C)c1Oc1nc(Nc2ccc(C#N)cc2)nc2ccn(C)c12` [Example 37], the EC50 with HIV-1 K103N-L100I mutant is more than 0.01 µM; in the assay with wild type HIV-1, 0.001 to 0.01 µM.
Turning to `COc1cccc(-c2cc(C)c(Oc3nc(Nc4ccc(C#N)cc4)nc4ccn(C)c34)c(C)c2)c1C#N` [Example 81, 4′-(2-(4-cyanophenylamino)-5-methyl-5H-pyrrolo[3,2-d]pyrimidin-4-yloxy)-3-methoxy-3′,5′-dimethylbiphenyl-2-carbonitrile], the figures for the EC50 with HIV-1 K103N-L100I mutant and with wild type HIV-1 were more than 0.01 µM and 0.001 to 0.01 µM, respectively.
`COc1ccc(Cn2cnc3nc(Nc4ccc(C#N)cc4)nc(Oc4c(C)cc(-c5ccc(C(N)=O)cc5)cc4C)c32)cc1` [Example 49, 4′-(2-(4-Cyanophenylamino)-7-(4-methoxybenzyl)-7H-purin-6-yloxy)-3′,5′-dimethylbiphenyl-4-carboxamide]: the results for the EC50 with HIV-1 K103N-L100I mutant and in the assay with wild type HIV-1 were more than 0.01 µM and 0.001 to 0.01 µM, respectively.
The matching figures for `Cc1cc(-c2ccc(S(N)(=O)=O)cc2)cc(C)c1Oc1nc(Nc2ccc(C#N)cc2)nc2c1ncn2C` [Example 52, 4′-(2-(4-Cyanophenylamino)-9-methyl-9H-purin-6-yloxy)-3′,5′-dimethylbiphenyl-4-sulfonamide]: 0.001 to 0.01 µM and less than 0.001 µM.
On to `Cc1cc(-c2ccc(S(N)(=O)=O)cc2)cc(Cl)c1Oc1nc(Nc2ccc(C#N)cc2)nc2ncn(C)c12` [Example 115, 3′-chloro-4′-(2-(4-cyanophenylamino)-7-methyl-7H-purin-6-yloxy)-5′-methylbiphenyl-4-sulfonamide], for which the EC50 with HIV-1 K103N-L100I mutant and with wild type HIV-1 was less than 0.001 µM each time.
In the case of `Cc1cc(-c2cnc3ccccc3c2)cc(C)c1Oc1nc(Nc2ccc(C#N)cc2)nc2ccn(C)c12` [Example 41, 4-(4-(2,6-Dimethyl-4-(quinolin-3-yl)phenoxy)-5-methyl-5H-pyrrolo[3,2-d]pyrimidin-2-ylamino) benzonitrile], the figures for the EC50 in the assay on HIV-1 K103N-L100I mutant and with wild type HIV-1 were more than 0.01 µM and 0.001 to 0.01 µM, respectively.
